How the values were obtained:
[1] = molecular target: neutrophil elastase in human plasma (Homo sapiens (Human), UniProt P08246); experiment: Neutrophil elastase inhibitory activity in human plasma; format: biochemical; conditions: human plasma assay (zymosan-stimulated blood plasma), substrate 250 μM, pH 7.5
[2] = molecular target: Human neutrophil elastase (Homo sapiens (Human), UniProt P08246); experiment: Human Neutrophil Elastase Assay; format: biochemical; conditions: substrate MeOSuc-Ala-Ala-Pro-Val-AMC 250 μM, pH 7.5, room temperature
Sequence of Human neutrophil elastase (P08246 30-247): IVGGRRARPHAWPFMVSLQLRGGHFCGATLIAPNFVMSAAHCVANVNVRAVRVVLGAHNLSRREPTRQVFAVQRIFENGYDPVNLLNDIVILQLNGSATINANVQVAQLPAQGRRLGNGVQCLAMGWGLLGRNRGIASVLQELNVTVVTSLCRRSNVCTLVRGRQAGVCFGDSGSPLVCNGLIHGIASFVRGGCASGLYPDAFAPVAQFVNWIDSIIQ

Sequence of neutrophil elastase in human plasma (P08246 30-247): as above

IC50 [1]	IC50 [2]	SMILES
11 nM	5.7 nM	N#Cc1ccc(C2NC(=O)N(c3cccc(C(F)(F)F)c3)C3=C2C(=O)NCC3)cc1 (racemic) [Example 1, 4-(2,5-Dioxo-1-(3-(trifluoromethyl)phenyl)-1,2,3,4,5,6,7,8-octahydropyrido[4,3-d]-pyrimidin-4-yl)benzonitrile]
8.2 nM	6.9 nM	N#Cc1ccc(C2NC(=O)N(c3cccc(C(F)F)c3)C3=C2C(=O)NCC3)cc1 (racemic) [Example 2, 4-(1-(3-(Difluoromethyl)phenyl)-2,5-dioxo-1,2,3,4,5,6,7,8-octahydropyrido[4,3-d]-pyrimidin-4-yl)benzonitrile]
2.9 nM	5.8 nM	CN1CCC2=C(C1=O)C(c1ccc(C#N)cc1)NC(=O)N2c1cccc(C(F)(F)F)c1 (racemic) [Example 4, 4-(6-Methyl-2,5-dioxo-1-(3-(trifluoromethyl)phenyl)-1,2,3,4,5,6,7,8-octahydropyrido[4,3-d]pyrimidin-4-yl)benzonitrile]
1.5 nM	< 1 nM	CN1C(=O)N(c2cccc(C(F)(F)F)c2)C2=C(C(=O)NCC2)C1c1ccc(C#N)cc1-c1cnco1 (racemic) [Example 25, 4-{3-Methyl-2,5-dioxo-1-[3-(trifluoromethyl)phenyl]-1H,2H,3H,4H,5H,6H,7H,8H-pyrido[4,3-d]pyrimidin-4-yl}-3-(1,3-oxazol-5-yl)benzonitrile]
1.4 nM	< 1 nM	CN1C(=O)N(c2cccc(C(F)(F)F)c2)C2=C(C(=O)NCC2)C1c1ccc(C#N)cc1-c1cnn(C)c1 (racemic) [Example 26, 3-(1-Methyl-1H-pyrazol-4-yl)-4-{3-methyl-2,5-dioxo-1-[3-(trifluoromethyl)phenyl]-1H,2H,3H,4H,5H,6H,7H,8H-pyrido[4,3-d]pyrimidin-4-yl}benzonitrile]
< 1 nM	< 1 nM	CN1C(=O)N(c2cccc(C(F)(F)F)c2)C2=C(C(=O)NCC2)C1c1ccc(C#N)cc1CO (racemic) [Example 29, 3-(Hydroxymethyl)-4-{3-methyl-2,5-dioxo-1-[3-(trifluoromethyl)phenyl]-1H,2H,3H,4H,5H,6H,7H,8H-pyrido[4,3-d]pyrimidin-4-yl}benzonitrile]
–	940 nM	N#Cc1ccc([C@@H]2NC(=O)N(c3cccc(C(F)(F)F)c3)C3=C2C(=O)NCC3)cc1 [Example 1B, (S)-4-(2,5-Dioxo-1-(3-(trifluoromethyl)phenyl)-1,2,3,4,5,6,7,8-octahydropyrido[4,3-d]-pyrimidin-4-yl)benzonitrile]
–	> 10000 nM	N#Cc1ccc([C@@H]2NC(=O)N(c3cccc(C(F)F)c3)C3=C2C(=O)NCC3)cc1 [Example 2B, (S)-4-(1-(3-(Difluoromethyl)phenyl)-2,5-dioxo-1,2,3,4,5,6,7,8-octahydropyrido[4,3-d]-pyrimidin-4-yl)benzonitrile]
13 nM	9.8 nM	CC1(C)CC2=C(C(=O)N1)C(c1ccc(C#N)cc1)NC(=O)N2c1cccc(C(F)(F)F)c1 (centres unmarked) [Example 3, 4-(7,7-Dimethyl-2,5-dioxo-1-(3-(trifluoromethyl)phenyl)-1,2,3,4,5,6,7,8-octahydropyrido[4,3-d]pyrimidin-4-yl)benzonitrile]
–	1900 nM	CN1CCC2=C(C1=O)[C@H](c1ccc(C#N)cc1)NC(=O)N2c1cccc(C(F)(F)F)c1 [Example 4B, (S)-4-(6-Methyl-2,5-dioxo-1-(3-(trifluoromethyl)phenyl)-1,2,3,4,5,6,7,8-octahydropyrido[4,3-d]pyrimidin-4-yl)benzonitrile]
1.1 nM	1.9 nM	CN1C(=O)N(c2cccc(C(F)(F)F)c2)C2=C(C(=O)NCC2)C1c1ccc(C#N)cc1 (centres unmarked) [Example 5, 4-(3-Methyl-2,5-dioxo-1-(3-(trifluoromethyl)phenyl)-1,2,3,4,5,6,7,8-octahydropyrido-[4,3-d]pyrimidin-4-yl)benzonitrile]
2 nM	1.2 nM	CN1CCC2=C(C1=O)[C@@H](c1ccc(C#N)cc1)N(C)C(=O)N2c1cccc(C(F)(F)F)c1 [Example 7, (R)-4-(3,6-Dimethyl-2,5-dioxo-1-(3-(trifluoromethyl)phenyl)-1,2,3,4,5,6,7,8-octahydropyrido[4,3-d]pyrimidin-4-yl)benzonitrile]
–	36 nM	CN1C(=O)N(c2cccc(C(F)F)c2)C2=C(C(=O)NCC2)[C@@H]1c1ccc(C#N)cc1 [Example 8B, (S)-4-(1-(3-(Difluoromethyl)phenyl)-3-methyl-2,5-dioxo-1,2,3,4,5,6,7,8-octahydropyrido[4,3-d]pyrimidin-4-yl)benzonitrile]
2.4 nM	2.7 nM	N#Cc1ccc(C2C3=C(CCNC3=O)N(c3cccc(C(F)(F)F)c3)C(=O)N2CC(=O)O)cc1 (centres unmarked) [Example 10, 2-(4-(4-Cyanophenyl)-2,5-dioxo-1-(3-(trifluoromethyl)phenyl)-1,2,5,6,7,8-hexahydropyrido[4,3-d]pyrimidin-3(4H)-yl)acetic acid]
2.9 nM	3 nM	N#Cc1ccc(C2C3=C(CCNC3=O)N(c3cccc(C(F)(F)F)c3)C(=O)N2CC(N)=O)cc1 (centres unmarked) [Example 11, 2-(4-(4-Cyanophenyl)-2,5-dioxo-1-(3-(trifluoromethyl)phenyl)-1,2,5,6,7,8-hexahydropyrido[4,3-d]pyrimidin-3(4H)-yl)acetamide]
–	1200 nM	CNC(=O)CN1C(=O)N(c2cccc(C(F)(F)F)c2)C2=C(C(=O)NCC2)[C@@H]1c1ccc(C#N)cc1 [Example 12B, (S)-2-(4-(4-Cyanophenyl)-2,5-dioxo-1-(3-(trifluoromethyl)phenyl)-1,2,5,6,7,8-hexahydropyrido[4,3-d]pyrimidin-3(4H)-yl)-N-methylacetamide]
2.2 nM	4.3 nM	CC1(C)CC2=C(C(=O)N1)C(c1ccc(C#N)cc1)N(CC(=O)O)C(=O)N2c1cccc(C(F)(F)F)c1 (centres unmarked) [Example 13, 2-(4-(4-cyanophenyl)-7,7-dimethyl-2,5-dioxo-1-(3-(trifluoromethyl)phenyl)-1,2,5,6,7,8-hexahydropyrido[4,3-d]pyrimidin-3(4H)-yl)acetic acid]
14 nM	3 nM	CN1CCC2=C(C1=O)C(c1ccc(C#N)cc1)N(CC(N)=O)C(=O)N2c1cccc(C(F)(F)F)c1 (centres unmarked) [Example 14, 2-(4-(4-Cyanophenyl)-6-methyl-2,5-dioxo-1-(3-(trifluoromethyl)phenyl)-1,2,5,6,7,8-hexahydropyrido[4,3-d]pyrimidin-3(4H)-yl)acetamide]
–	12 nM	CN1C(=O)N(c2cccc(C(F)(F)F)c2)C2=C(C(=O)NCC2)[C@@H]1c1ccc(C#N)cc1-c1cnco1 [Example 30B, 4-[(4S)-3-Methyl-2,5-dioxo-1-[3-(trifluoromethyl)phenyl]-1H,2H,3H,4H,5H,6H,7H,8H-pyrido[4,3-d]pyrimidin-4-yl]-3-(1,3-oxazol-5-yl)benzonitrile]
–	17 nM	CN1C(=O)N(c2cccc(C(F)(F)F)c2)C2=C(C(=O)NCC2)[C@@H]1c1ccc(C#N)cc1-c1cnn(C)c1 [Example 31B, 3-(1-Methyl-1H-pyrazol-4-yl)-4-[(4S)-3-methyl-2,5-dioxo-1-[3-(trifluoromethyl)-phenyl]-1H,2H,3H,4H,5H,6H,7H,8H-pyrido[4,3-d]pyrimidin-4-yl]benzonitrile]
–	39 nM	CN1C(=O)N(c2cccc(C(F)(F)F)c2)C2=C(C(=O)NCC2)[C@@H]1c1ccc(C#N)cc1CO [Example 32B, 3-(Hydroxymethyl)-4-[(4S)-3-methyl-2,5-dioxo-1-[3-(trifluoromethyl)phenyl]-1H,2H,3H,4H,5H,6H,7H,8H-pyrido[4,3-d]pyrimidin-4-yl]benzonitrile]

SMILES	IC50 [1]	IC50 [2]
CNC(=O)CN1C(=O)N(c2cccc(C(F)(F)F)c2)C2=C(C(=O)NCC2)C1c1ccc(C#N)cc1 (racemic) [Example 12, 2-(4-(4-Cyanophenyl)-2,5-dioxo-1-(3-(trifluoromethyl)phenyl)-1,2,5,6,7,8-hexahydropyrido[4,3-d]pyrimidin-3(4H)-yl)-N-methylacetamide]	2.8 nM	2 nM
CN(C)C(=O)CN1C(=O)N(c2cccc(C(F)(F)F)c2)C2=C(C(=O)NCC2)C1c1ccc(C#N)cc1 (centres unmarked) [Example 12.1]	< 1 nM	1.1 nM
CCNC(=O)CN1C(=O)N(c2cccc(C(F)(F)F)c2)C2=C(C(=O)NCC2)C1c1ccc(C#N)cc1 (centres unmarked) [Example 12.2]	2.5 nM	2.4 nM
N#Cc1ccc(C2C3=C(CCNC3=O)N(c3cccc(C(F)(F)F)c3)C(=O)N2CC(=O)NCCO)cc1 (centres unmarked) [Example 12.3]	3.6 nM	2.1 nM
COCCNC(=O)CN1C(=O)N(c2cccc(C(F)(F)F)c2)C2=C(C(=O)NCC2)C1c1ccc(C#N)cc1 (centres unmarked) [Example 12.4]	5.1 nM	2 nM
N#Cc1ccc(C2C3=C(CCNC3=O)N(c3cccc(C(F)(F)F)c3)C(=O)N2CC(=O)N2CC3CC3C2)cc1 (centres unmarked) [Example 12.5]	< 1 nM	< 1 nM
N#Cc1ccc(C2C3=C(CCNC3=O)N(c3cccc(C(F)(F)F)c3)C(=O)N2CC(=O)N2CCCCC2)cc1 (centres unmarked) [Example 12.6]	< 1 nM	< 1 nM
N#Cc1ccc(C2C3=C(CCNC3=O)N(c3cccc(C(F)(F)F)c3)C(=O)N2CC(=O)N2CCOCC2)cc1 (centres unmarked) [Example 12.7]	< 1 nM	< 1 nM
N#Cc1ccc(C2C3=C(CCNC3=O)N(c3cccc(C(F)(F)F)c3)C(=O)N2CC(=O)N2CCC(F)C2)cc1 (centres unmarked) [Example 12.8]	1.1 nM	< 1 nM
Cn1ncc2c1CN(C(=O)CN1C(=O)N(c3cccc(C(F)(F)F)c3)C3=C(C(=O)NCC3)C1c1ccc(C#N)cc1)C2 (centres unmarked) [Example 12.9]	1 nM	< 1 nM
CNC(=O)CN1C(=O)N(c2cccc(C(F)(F)F)c2)C2=C(C(=O)NCC2)[C@H]1c1ccc(C#N)cc1 [Example 12A, (R)-2-(4-(4-Cyanophenyl)-2,5-dioxo-1-(3-(trifluoromethyl)phenyl)-1,2,5,6,7,8-hexahydropyrido[4,3-d]pyrimidin-3(4H)-yl)-N-methylacetamide]	< 1 nM	1.3 nM

Reference: patent publication US9657015B2, “Substituted bicyclic dihydropyrimidinones and their use as inhibitors of neutrophil elastase activity” (Boehringer Ingelheim International GmbH, priority 2014, dated 2017)
